According to article PMC7796460, “Relation of Metal-Binding Property and Selective Toxicity of 8-Hydroxyquinoline Derived Mannich Bases Targeting Multidrug Resistant Cancer Cells” (Cancers, 2021):
Read-outs that look alike come from different tables or passages of the source.

Assays:
MES-SA cells [1] = test: MTT viability assay, MES-SA; assay type: cell-based, human
Excerpt: (§1) MDCK II canine kidney cells, A431 epidermoid carcinoma cells, the human uterine sarcoma cell lines MES-SA and the doxorubicin selected MES-SA-Dx5 were obtained from ATCC (MDCK II: No. CRL-2936™, A431: No. CRL-1555™, MES-SA: No. CRL-1976™, MES-SA/Dx5: No. CRL-1977™). ABCB1 was expressed in A431 and MES-SA cells using lentiviral transduction. The human cervix carcinoma cell line KB-3-1 and the vinblastine selected KB-v1were kind gifts from Dr. Michael M. Gottesman, National Institutes of Health. The phenotype of the resistant cells was verified using cytotoxicity assays. MDCK-B1 and MDCK-MM were established by the Sleeping Beauty transposon-based gene delivery system. OVCAR-8 and NCI-ADRres cells (obtained from the Division of Cancer Treatment and Diagnosis (DCTD) Tumor Repository (National Cancer Institute, Frederick, MD, USA)) were cultivated in RPMI-1640 (Sigma Aldrich, Budapest, Hungary), and other cell lines were cultivated in Dulbecco’s Modified Eagle Medium (DMEM, Sigma Aldrich, Budapest, Hungary), supplemented with 10% fetal bovine serum, 5 mM glutamine, and 50 unit/mL penicillin and streptomycin (Life Technologies, Carlsbad, CA, USA). All cell lines were cultivated at 37 °C, 5% CO2.
(§2) MTT viability assays were performed as described earlier with minor modifications. Briefly, cells were seeded into 96-well tissue culture plates (Sarstedt, Newton, NC, USA/Orange, Braine-l’Alleud, Belgium) at a density of 5000 cells/well and allowed to attach overnight. Test compounds were added to achieve the required final concentration in a final volume of 100 µL per well. After an incubation period of 72 h, the supernatant was removed and fresh medium containing the MTT reagent (0.083 mg/mL) was added. Incubation with MTT at 37 °C was terminated after 1 h by removing the supernatant and lysing the cells with 100 µL DMSO per well. Viability of the cells was measured spectrophotometrically based on the absorbance values at 540 nm using either a Perkin Elmer Victor X3 or an EnSpire microplate reader. Data were background corrected by subtraction of the signal obtained from unstained cell lysates and normalized to untreated cells. Curves were fitted by Prism software (GraphPad Software Inc., San Diego, CA, USA) using the sigmoidal dose-response model (comparing variable and fixed slopes). […] Significance was calculated using unpaired t-tests; results are given as *: p ≤ 0.05, **: p ≤ 0.01, ***: p ≤ 0.001, ****: p ≤ 0.0001.

MES-SA/Dx5 cells [2] = test: MTT viability assay, MES-SA/Dx5; assay type: cell-based, human; conditions: for SR: Table S1, IC50 Pgp negative divided by Pgp positive cells; for SR_TQ: Table S1, presence of 1 µM TQ
Excerpt: as §1, §2

[3] = pKa by UV-visible spectrophotometric titrations; assay type: physicochemical; conditions: T = 25 °C, I = 0.2 M (KCl); for pKa: 0.2 M KCl (ionic strength)
MES-SA cells [4] = test: ROS determination with DCFDA, MES-SA; assay type: cell-based, human; conditions: 2 h
Procedure: (§3) Measurements were performed as described earlier. Briefly, cells were harvested, washed with PBS, and incubated with 10 µM DCFDA in a water bath shaker at 37 °C for 30 min in a density of 3 × 10^6 cells/mL. After washing with PBS, cells were seeded to 96-well plates in PBS in a density of 2 × 10^4 cells/well. Following the measurement of the basal fluorescence, test compounds were added in different concentrations and the fluorescence of the samples was followed at time intervals of 10 min. DCFDA solution in buffer was used as a cell free control to test for interaction of the test compounds with DCFDA. Data were analyzed as fold change of fluorescence compared to basal levels and untreated cells. Significance was calculated using unpaired t-tests; results are given as *: p ≤ 0.05, **: p ≤ 0.01, ***: p ≤ 0.001, ****: p ≤ 0.0001.
(§4) Table S3: Characterization of intracellular ROS production with the DCFDA assay for P -gp negative MES-SA and P-gp positive MES-SA/Dx5 cells. Fold changes in fluorescence are shown after a 2 h with the investigated 8 -hydroxyquinoline ligands. Data S-refer to Figure 7 and allow […]
(§5) concentration range from 6.25µ M to 50µ M. Fold change of fluorescence obtained in the presence of 5 mM NAC is given in brackets.

MES-SA/Dx5 cells [5] = test: ROS determination with DCFDA, MES-SA/Dx5; assay type: cell-based, human; conditions: 2 h
Procedure: as §3, §4, §5

[6] = Table 2, value outside brackets
[7] = Table S1, calculated as ligand equivalents, presence of 1 µM TQ, read-out: IC50 MES-SA_TQ
[8] = Table S1, ligands and in situ preformed complexes, calculated as ligand equivalents, absence of TQ, read-out: IC50 MES-SA
[9] = Table S1, calculated as ligand equivalents, absence of TQ, read-out: IC50 Dx5
[10] = Table S1, calculated as ligand equivalents, presence of 1 µM TQ, read-out: IC50 Dx5_TQ

For “7-(2-fluorobenzyl-aminomethyl)-8-hydroxyquinoline hydrochloride [De-Cl-Q-4]”, the IC50 (MES-SA cells [1]; Table 2, value outside brackets, read-out: MES-SA (toxicity, Table 2)) was 1780 ± 80 nM, the “SR MES-SA/Dx5 (Table 2)” value (MES-SA/Dx5 cells [2]; Table 2, value in brackets (Tariquidar as in Table 1)) was 1.72 and the “SR MES-SA/Dx5 (Table 2)” value (MES-SA/Dx5 cells [2]; [6]) was 5.22. For the same molecule, the IC50 (MES-SA/Dx5 cells [2]; Table 2, value outside brackets, read-out: MES-SA/Dx5 (toxicity, Table 2)) was 340 ± 10 nM, the “pKa (NquinoliniumH+)” value [3] was 3.21 ± 0.04 and the “pKa (OH)” value [3] was 6.42 ± 0.04. For the same molecule, the “pKa (additional)” value ([3]; group named in the cell (NmorpholiniumH+, NpiperidiniumH+, NbenzylamineH2+)) was 10.69 ± 0.04 (NbenzylamineH2^+), the “Fold change in fluorescence (DCFDA)” value (MES-SA cells [4]; 6.25 µM) was 1.431± 0.39 and the “Fold change in fluorescence (DCFDA)” value (MES-SA cells [4]; 6.25 µM, presence of 5 mM NAC (brackets)) was 1.364± 0.44. The “Fold change in fluorescence (DCFDA)” value (MES-SA cells [4]; 12.5 µM) was 1.118± 0.14, the “Fold change in fluorescence (DCFDA)” value (MES-SA cells [4]; 12.5 µM, presence of 5 mM NAC (brackets)) was 1.345± 0.27 and the “Fold change in fluorescence (DCFDA)” value (MES-SA cells [4]; 25 µM) was 1.260± 0.20. For the same molecule, the “Fold change in fluorescence (DCFDA)” value (MES-SA cells [4]; 25 µM, presence of 5 mM NAC (brackets)) was 1.111± 0.22, the “Fold change in fluorescence (DCFDA)” value (MES-SA cells [4]; 50 µM) was 1.328± 0.29 and the “Fold change in fluorescence (DCFDA)” value (MES-SA cells [4]; 50 µM, presence of 5 mM NAC (brackets)) was 1.259± 0.29. The “Fold change in fluorescence (DCFDA)” value (MES-SA/Dx5 cells [5]; MES-SA/Dx5, 6.25 µM) was 1.282± 0.35, the “Fold change in fluorescence (DCFDA)” value (MES-SA/Dx5 cells [5]; MES-SA/Dx5, 6.25 µM, presence of 5 mM NAC (brackets)) was 1.137± 0.30 and the “Fold change in fluorescence (DCFDA)” value (MES-SA/Dx5 cells [5]; MES-SA/Dx5, 12.5 µM) was 1.177± 0.22. The “Fold change in fluorescence (DCFDA)” value (MES-SA/Dx5 cells [5]; MES-SA/Dx5, 12.5 µM, presence of 5 mM NAC (brackets)) was 1.088± 0.23, the “Fold change in fluorescence (DCFDA)” value (MES-SA/Dx5 cells [5]; MES-SA/Dx5, 25 µM) was 1.344± 0.27 and the “Fold change in fluorescence (DCFDA)” value (MES-SA/Dx5 cells [5]; MES-SA/Dx5, 25 µM, presence of 5 mM NAC (brackets)) was 1.282± 0.28. The “Fold change in fluorescence (DCFDA)” value (MES-SA/Dx5 cells [5]; MES-SA/Dx5, 50 µM) was 1.373± 0.35 and the “Fold change in fluorescence (DCFDA)” value (MES-SA/Dx5 cells [5]; MES-SA/Dx5, 50 µM, presence of 5 mM NAC (brackets)) was 1.265± 0.27.

For `[Cu+2].[O-]c1c(CN2CCOCC2)ccc2cccnc12.[O-]c1c(CN2CCOCC2)ccc2cccnc12` [1/2 [Cu(Q-2)2]], the IC50 (MES-SA cells [1]; [7]) was 2020 ± 650 nM, the IC50 (MES-SA cells [1]; [8]) was 2270 ± 670 nM and the SR (MES-SA/Dx5 cells [2]; absence of TQ) was 1.29. The IC50 (MES-SA/Dx5 cells [2]; [9]) was 1760 ± 560 nM, the IC50 (MES-SA/Dx5 cells [2]; [10]) was 1920 ± 450 nM and the SR_TQ (MES-SA/Dx5 cells [2]) was 1.05.

For `[Cu+2].[O-]c1c(CN2CCCCC2)ccc2cccnc12.[O-]c1c(CN2CCCCC2)ccc2cccnc12` [1/2 [Cu(Q-3)2]], the IC50 (MES-SA cells [1]; [7]) was 2130 ± 650 nM, the IC50 (MES-SA cells [1]; [8]) was 1910 ± 590 nM and the SR (MES-SA/Dx5 cells [2]; absence of TQ) was 2.52. It also gave an IC50 (MES-SA/Dx5 cells [2]; [9]) of 760 ± 260 nM, an IC50 (MES-SA/Dx5 cells [2]; [10]) of 2040 ± 360 nM and an SR_TQ (MES-SA/Dx5 cells [2]) of 1.04.

`[Fe+3].[O-]c1c(CNCc2ccccc2F)cc(Cl)c2cccnc12.[O-]c1c(CNCc2ccccc2F)cc(Cl)c2cccnc12.[O-]c1c(CNCc2ccccc2F)cc(Cl)c2cccnc12` [1/3 [Fe(Q-4)3]] gave an IC50 (MES-SA cells [1]; [7]) of 3540 ± 130 nM, an IC50 (MES-SA cells [1]; [8]) of 2950 ± 1330 nM and an SR (MES-SA/Dx5 cells [2]; absence of TQ) of 13.14. For the same molecule, the IC50 (MES-SA/Dx5 cells [2]; [9]) was 220 ± 120 nM, the IC50 (MES-SA/Dx5 cells [2]; [10]) was 3450 ± 330 nM and the SR_TQ (MES-SA/Dx5 cells [2]) was 1.03.

With `Oc1c(CNCc2ccccc2F)ccc2ccccc12` [NC-4, 2-((2-fluorobenzylamino)methyl)naphthalen-1-ol] the IC50 (MES-SA cells [1]; Homo sapiens, MES-SA, Table 2, value outside brackets, read-out: MES-SA (toxicity, Table 2)) was 44700 ± 4520 nM, the IC50 (MES-SA/Dx5 cells [2]; Homo sapiens, MES-SA/Dx5, Table 2, value outside brackets, read-out: MES-SA/Dx5 (toxicity, Table 2)) was 31100 ± 2170 nM and the “SR MES-SA/Dx5 (Table 2)” value (MES-SA/Dx5 cells [2]; [6]) was 1.44. For the same molecule, the pKa ([3]; group named in the cell (NmorpholiniumH+, NpiperidiniumH+, NbenzylamineH2+), read-out: pKa (additional)) was 9.72 ± 0.02 and the pKa ([3]; read-out: pKa (OH)) was 5.5 ± 0.02.

In the case of `[Fe+3].[O-]c1c(CN2CCOCC2)ccc2cccnc12.[O-]c1c(CN2CCOCC2)ccc2cccnc12.[O-]c1c(CN2CCOCC2)ccc2cccnc12` [1/3 [Fe(Q-2)3]], the IC50 (MES-SA cells [1]; [7]) is reported as 4350 ± 580 nM, the IC50 (MES-SA cells [1]; [8]) is reported as 3870 ± 880 nM and the SR (MES-SA/Dx5 cells [2]; absence of TQ) is reported as 1.24. The IC50 (MES-SA/Dx5 cells [2]; [9]) was 3130 ± 840 nM, the IC50 (MES-SA/Dx5 cells [2]; [10]) was 4230 ± 520 nM and the SR_TQ (MES-SA/Dx5 cells [2]) was 1.03.

In the case of `CC(=O)N[C@@H](CS)C(=O)O` [NAC, N-acetyl cysteine, reference compound], the “Effect on viability of the cells, alone” value (MES-SA cells [1]; 5 mM, MES-SA) is reported as “did not influence the viability” and the “Effect on viability of the cells, alone” value (MES-SA/Dx5 cells [2]; 5 mM, MES-SA/Dx5) is reported as “did not influence the viability”.
